Measured values from patent EP1106702A1, “High-throughput screening of compounds using electrospray ionization mass spectrometry (ESI-MS)” (AGOURON PHARMACEUTICALS, INC., priority 1999, dated 2001).

Experiments:
ss DNA = experiment: ESI-MS monitoring of ligand binding to the single strands in the duplex mixture; details: 10 µM duplex 6:7 mixture, increasing ligand concentration
Protocol: The complementary oligonucleotide strands and corresponding oligonucleotide duplex are not critical to the invention. The duplex may comprise a DNA:DNA duplex, an RNA:RNA duplex or a DNA:RNA duplex. The DNA strands utilized herein are described in detail below. Once desalted, the complementary oligonucleotide strands are added in equimolar mixture in 50 mM ammonium acetate to make a […] duplex stock solution. The duplex stock solution is placed in a 60° C water bath for 10 minutes and then slowly cooled to room temperature. Test solutions are made by adding test compound (dissolved in methanol (MeOH)) to stock solution in a 2:1 water:isopropyl alcohol. Final concentrations of test compound and duplex are preferably 10 µM each. […]
Once the appropriate samples and solutions are prepared, one may proceed with the ESI-MS procedure. […] The spectra is then analyzed for the presence of bound test ligand. […] In order to ensure statistical accuracy, data are preferably summed, saved, and analyzed over a large numbers of scans, preferably 30 to 50 scans, more preferably 40 scans.
(§1) The oligonucleotides utilized in the examples herein were known to interact with a particular target(s) of interest. […] When the duplex solution was analyzed by ESI-MS, it was possible to see at least three charge stages of the duplex as well as some charge states of the two single strands. […]

6:7 duplex [1] = experiment: ESI-MS monitoring of non-covalent small molecule:oligonucleotide complexes with DNA duplex; format: binding; details: for ammonium acetate concentration tolerated with binding/complex stable: ammonium acetate varied from 10 mM to 250 mM; for relative binding affinity to 6:7 duplex: 10 mM ammonium acetate
Protocol: Regarding buffer concentration, the concentrations of ammonium acetate were varied to determine the effects of ionic strength on ligand binding. […] Of the intercalators, proflavin tolerated over 100 mM ammonium acetate with minimal shifting in binding. However, ethidium bromide and methyl green had almost 70% reduction in binding to DNA at only 33 mM ammonium acetate. The reduction in binding of ethidium bromide and methyl green at high salt concentrations is evidence of the electrostatic nature of the first step in binding in the intercalation of these compounds. Proflavin, which is […] at the test pH, should be less affected by an increase in competing counterions.
The general protocol for preparing the samples utilized in the present invention is as follows. Complementary single-stranded oligonucleotides are desalted, preferably via ammonium acetate precipitation. This DNA desalting procedure involves the following steps. First, the oligonucleotide is dissolved in approximately 100 µL of water. Next, about 500 µL of 10 M ammonium acetate is added. The solution is mixed and allowed to rest for about 5 minutes. From about 600 to about […] of cold ethanol (EtOH) is added and the solution is set in dry ice for about 25 minutes. The solution is then centrifuged for about 20 minutes. The supernatant is removed and saved and the preceding steps are repeated once. Subsequently, 1 ml of a 90:10 solution of EtOH and water are added and the solution is centrifuged for 5 minutes. This step is then repeated twice. The solution is then dried and rehydrated. Finally, OD readings are taken at 260 nanometers to ensure a 1:500 dilution.
The complementary oligonucleotide strands and corresponding oligonucleotide duplex are not critical to the invention. The duplex may comprise a DNA:DNA duplex, an RNA:RNA duplex or a DNA:RNA duplex. The DNA strands utilized herein are described in detail below. Once desalted, the complementary oligonucleotide strands are added in equimolar mixture in 50 mM ammonium acetate to make a […] duplex stock solution. The duplex stock solution is placed in a 60° C water bath for 10 minutes and then slowly cooled to room temperature. Test solutions are made by adding test compound (dissolved in methanol (MeOH)) to stock solution in a 2:1 water:isopropyl alcohol. Final concentrations of test compound and duplex are preferably 10 µM each. For example, 20 µL of the stock duplex solution is added to 80 µL of a 2:1 solution of water and IPA for a final volume of 100 µL and a final concentration of 10 µM duplex. The test compound is then added to the solution for a final concentration of 10 µM as well. One may subsequently dilute the test solution to test a range of test compound concentrations, from as low as 0.3 µM up to 10 µM.
Once the appropriate samples and solutions are prepared, one may proceed with the ESI-MS procedure. The general protocol for manual analysis is as follows. First, a 50 µL sample of test solution (comprised of about 30 picomoles of test compound) is drawn into a 100 µL syringe and infused into an LCQ Decca ion trap mass spectrometer using ESI-MS source. The sample is directly infused at a rate of about 1.5 µL/min over a period of approximately 2 minutes. The spectra is then analyzed for the presence of bound test ligand. If the test ligand does bind, the sample is re-run at lower concentrations, from about 0.3 µM up to 1.0 µM. In order to ensure statistical accuracy, data are preferably summed, saved, and analyzed over a large numbers of scans, preferably 30 to 50 scans, more preferably 40 scans.
as §1, with “interest. They were provided according to our specifications from TriLink (La Jolla, CA).” for “interest.”

E.coli DNA helicase II = E.coli DNA helicase II (Escherichia coli, UniProt P03018); details: intercalation into double-stranded DNA substrate; cited from earlier work
Sequence of E.coli DNA helicase II (P03018 whole entry): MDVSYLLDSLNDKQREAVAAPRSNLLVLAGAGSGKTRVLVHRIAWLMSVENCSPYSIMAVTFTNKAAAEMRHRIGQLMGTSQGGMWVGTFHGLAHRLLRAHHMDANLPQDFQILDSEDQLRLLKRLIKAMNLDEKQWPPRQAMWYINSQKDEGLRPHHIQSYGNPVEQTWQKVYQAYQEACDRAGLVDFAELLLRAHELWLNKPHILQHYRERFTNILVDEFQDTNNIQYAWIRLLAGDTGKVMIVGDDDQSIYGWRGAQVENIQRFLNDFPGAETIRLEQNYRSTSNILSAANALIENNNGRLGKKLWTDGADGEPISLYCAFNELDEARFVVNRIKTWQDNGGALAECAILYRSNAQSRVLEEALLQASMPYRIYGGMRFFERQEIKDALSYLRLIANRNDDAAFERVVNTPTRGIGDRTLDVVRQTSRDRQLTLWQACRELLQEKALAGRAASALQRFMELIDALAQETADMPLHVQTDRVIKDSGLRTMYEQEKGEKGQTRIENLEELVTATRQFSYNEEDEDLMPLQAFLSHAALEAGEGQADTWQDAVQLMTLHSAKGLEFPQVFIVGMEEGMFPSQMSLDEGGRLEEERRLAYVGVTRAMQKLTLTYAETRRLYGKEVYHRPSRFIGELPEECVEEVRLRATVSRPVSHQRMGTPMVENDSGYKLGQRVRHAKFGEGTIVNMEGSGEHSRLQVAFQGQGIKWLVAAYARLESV
6:7 duplex [2] = experiment: ESI-MS monitoring of non-covalent small molecule:oligonucleotide complexes with DNA duplex; format: binding; details: 10 µM duplex and 10 µM proflavin; FT-ICR mass spectrometer
[3] = 33 mM ammonium acetate, 10 µM 6:7 duplex and 10 µM sample
[4] = 10 µM 6:7 duplex and 10 µM sample

Q: With CN1CCN(c2ccc3[nH]c(-c4ccc5[nH]c(-c6ccc(O)cc6)nc5c4)nc3c2)CC1 [H33258, bis-benzamide] as the molecule, how does the “binding to single strand” value (ss DNA) read?
A: Its value is “ligand bound to ss DNA was observed in increasing quantities”.

Q: And the “relative amounts of the 1:1 H33258:DNA complex compared with the 2:1 H33258:DNA complex” value (6:7 duplex [1]; 33 mM ammonium acetate)?
A: Its value is “shifted”.

Q: What about the “change in binding (in words)” value (6:7 duplex [1]; [3]) of the same molecule?
A: The value was “appreciable reduction in binding”.

Q: Which “ammonium acetate concentration tolerated with binding/complex stable” value (6:7 duplex [1]; [4]) does the source give for Cn1cc(NC(=O)c2cc(NC(=O)c3cc(NC=O)cn3C)cn2C)cc1C(=O)NCCC(=N)N [distamycin A] here?
A: Its value is “up to 100 mM”.

Q: And the “observation of ligand:DNA complex” value (6:7 duplex [1]; 500 mM ammonium acetate in solution)?
A: Its value is “still observed (though at much reduced levels)”.

Q: With CN(C)c1ccc(C(=C2C=CC(=[N+](C)C)C=C2)c2ccc([N+](C)(C)C)cc2)cc1.[Cl-].[Cl-] [methyl green] as the molecule, how does the “relative binding affinity to 6:7 duplex” value (6:7 duplex [1]) read?
A: The value was “methyl green > ethidium bromide > proflavin”.

Q: What about the “reduction in binding to DNA” value (6:7 duplex [1]; [3]) of the same molecule?
A: Its value is ~70%.

Q: Which “effect on helicase II ATP hydrolysis and unwinding activity” value (E.coli DNA helicase II) does the source give for O=C1c2c(O)ccc(O)c2C(=O)c2c(NCCNCCO)ccc(NCCNCCO)c21 [mitoxantrone] here?
A: Its value is “inhibition of ATP hydrolysis and unwinding activity”.

Q: With Nc1ccc2cc3ccc(N)cc3nc2c1 [proflavin] as the molecule, how does the “binding between intercalator and duplex” value (6:7 duplex [2]) read?
A: Its value is “binding between intercalator and duplex was observed”.

Q: And the “ammonium acetate concentration tolerated with binding/complex stable” value (6:7 duplex [1]; [4])?
A: The value was “over 100 mM”.

Q: And the “relative binding affinity to 6:7 duplex” value (6:7 duplex [1])?
A: The value was “methyl green > ethidium bromide > proflavin”.
